The values below come from ChEMBL document CHEMBL5244281, “Tackling multidrug-resistant Staphylococcus aureus by natural products and their analogues acting as NorA efflux pump inhibitors” (Bioorg Med Chem, 2023).

Structures are written as SMILES. In brackets after ≈: the same amount, converted by molar mass. Some results are limits rather than exact numbers.

The subject of assay [1] is Staphylococcus aureus. The assay is described as follows: Synergistic antimicrobial activity against Staphylococcus aureus 1199B overexpressing NorA efflux pump assessed as norfloxacin MIC incubated for 24 hrs by broth dilution method. Type of assay: functional. A general note: Broth dilution looks for growth in wells or tubes with falling amounts of substance.
Assay [2] relates to Staphylococcus aureus. The assay is described as follows: Antibacterial activity against fluoroquinolone-resistant Staphylococcus aureus 1199B overexpressing NorA gene assessed as bacterial growth inhibition by microdilution method. The assay is classed as functional.
The target of assay [3] is Quinolone resistance protein NorA (Staphylococcus aureus, UniProt P0A0J7). The assay is described as follows: Inhibition of NorA efflux pump in Staphylococcus aureus 1199B overexpressing NorA gene assessed as reduction in EtBr efflux inhibition by spectrofluorometric assay.
Assay [4] has as its target T1, Quinolone resistance protein NorA (Staphylococcus aureus) (UniProt P0A0J7).
T1 sequence (whole entry): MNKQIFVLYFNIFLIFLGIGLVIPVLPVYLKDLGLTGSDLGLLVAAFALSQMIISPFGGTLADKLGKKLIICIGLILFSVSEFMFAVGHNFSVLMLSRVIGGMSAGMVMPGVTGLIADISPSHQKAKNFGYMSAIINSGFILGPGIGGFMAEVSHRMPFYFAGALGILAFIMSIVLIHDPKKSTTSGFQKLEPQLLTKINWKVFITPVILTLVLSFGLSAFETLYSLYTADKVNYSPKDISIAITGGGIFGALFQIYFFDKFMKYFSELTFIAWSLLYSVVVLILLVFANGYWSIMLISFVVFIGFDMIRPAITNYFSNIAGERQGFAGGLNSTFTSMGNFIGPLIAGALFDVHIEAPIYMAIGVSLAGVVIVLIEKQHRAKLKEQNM
The assay is described as follows: Inhibition of NorA efflux pump in Staphylococcus aureus 1199B overexpressing NorA gene assessed as efflux inhibition at 2 mg/L by Hoechst 33342 staining based fluorescence assay.

Assay [5] concerns the target T1, Quinolone resistance protein NorA (Staphylococcus aureus). Kind of assay: Inhibition of NorA efflux pump in Staphylococcus aureus 1199B overexpressing NorA efflux pump assessed as reduction in ciprofloxacin MIC at […] by resazurin based assay (Rvb= 6.25 ug/ml). A general note: Alamar Blue is a resazurin reagent that responds to reducing activity.
For assay [6], the system named is Staphylococcus aureus. The assay is described as follows: Synergistic antimicrobial activity against Staphylococcus aureus 1199B overexpressing NorA efflux pump assessed as reduction in norfloxacin MIC incubated for 24 hrs by MTT colorimetric assay (Rvb= 128 mg/ml). The assay is classed as functional.
For assay [7], the system named is Staphylococcus aureus. The assay is described as follows: Synergistic antimicrobial activity against Staphylococcus aureus 1199B overexpressing NorA efflux pump assessed as fractional inhibitory concentration index incubated for 24 hrs by checkerboard method. The assay is classed as functional.
The test system of assay [8] is Staphylococcus aureus. Kind of assay: Antibacterial activity against methicillin-resistant Staphylococcus aureus 1199B overexpressing NorA efflux pump assessed as bacterial growth inhibition incubated for 18 hrs by broth microdilution method. Type of assay: functional.
The subject of assay [9] is Staphylococcus aureus. Kind of assay: Antibacterial activity against methicillin-resistant Staphylococcus aureus RN4220/pUL5054 overexpressing MsrA efflux pump assessed as bacterial growth inhibition incubated for 18 hrs by broth microdilution method. Type of assay: functional.
The subject of assay [10] is Staphylococcus aureus. Kind of assay: Antibacterial activity against gentamicin-resistant Staphylococcus aureus APH2" AAC6 assessed as bacterial growth inhibition incubated for 18 hrs by broth microdilution method. Type of assay: functional.
Assay [11] deals with Staphylococcus aureus. The assay is described as follows: Antibacterial activity against kanamycin-resistant Staphylococcus aureus APH3' assessed as bacterial growth inhibition incubated for 18 hrs by broth microdilution method. The assay is classed as functional.
Assay [12] has as its system Staphylococcus aureus. Kind of assay: Antibacterial activity against fusidic acid-resistant Staphylococcus aureus APH4' assessed as bacterial growth inhibition incubated for 18 hrs by broth microdilution method. The assay is classed as functional.
Assay [13] deals with Staphylococcus aureus. Kind of assay: Antibacterial activity against Staphylococcus aureus ST239 assessed as bacterial growth inhibition incubated for 18 hrs by broth microdilution method. Type of assay: functional.
The subject of assay [14] is Staphylococcus aureus. The assay is described as follows: Synergistic antibacterial activity against Staphylococcus aureus 1199B overexpressing NorA gene assessed as fractional inhibitory concentration index at 128 ug/ml in presence of norfloxacin. Type of assay: functional. To be noted: dose 128 µg/ml.
The test system of assay [15] is Staphylococcus aureus. The assay is described as follows: Antibacterial activity against norfloxacin resistant Staphylococcus aureus 1199B harboring NorA efflux pump gene assessed as bacterial growth inhibition incubated for 24 hrs by resazurin based microdilution test. Type of assay: functional.
The subject of assay [16] is Staphylococcus aureus. Kind of assay: Antibacterial activity against Staphylococcus aureus ATCC 25923 assessed as bacterial growth inhibition incubated for 24 hrs by resazurin based microdilution test. Type of assay: functional.
Assay [17] concerns Escherichia coli. The assay is described as follows: Antibacterial activity against Escherichia coli ATCC 25922 assessed as bacterial growth inhibition incubated for 24 hrs by resazurin based microdilution test. Type of assay: functional.
Assay [18] has as its system Staphylococcus aureus. Kind of assay: Synergistic antibacterial activity against methicillin-susceptible Staphylococcus aureus 1199B overexpressing NorA efflux pump assessed as reduction in norfloxacin MIC at 64 ug/ml incubated for 18 to 24 hrs in presence of norfloxacin by MTT assay. Type of assay: functional. To be noted: dose 64 µg/ml, time 18-24 hrs.
For assay [19], the system named is Staphylococcus aureus. The assay is described as follows: Synergistic antibacterial activity against methicillin-susceptible Staphylococcus aureus 1199B overexpressing NorA efflux pump assessed as fractional inhibitory concentration index at 64 ug/ml incubated for 18 to 24 hrs in presence of norfloxacin by checkerboard microdilution assay. Type of assay: functional. The settings on record: dose 64 µg/ml; time 18-24 hrs.

As to `COC[C@@H](Cc1ccc(OC)c(OC)c1)[C@@H](COC)Cc1ccc(OC)c(OC)c1`, in assay [1], the MIC came out at 12.7 µg/mL.

For `C[C@@H]1O[C@@H](Oc2c(-c3ccc(O)cc3)oc3cc(O)cc(O)c3c2=O)[C@H](OC(=O)/C=C/c2ccc(O)cc2)[C@H](O)[C@H]1OC(=O)/C=C/c1ccc(O)cc1`, the MIC was 35 µM in [2] and 0.78 µg/mL in assay [5]. Moreover, the IC50 – broadly, the concentration that gives 50% inhibition – in assay [3] came to 2000 nM. Further, the inhibition (commonly the share of the control response that was lost under treatment) in assay [4] is 40%.

On to `C/C=C/C1=CC2C(=CC1=O)O[C@H](c1ccc(OC)c(OC)c1)[C@H]2C` (some centres undefined), for which, in assay [6], the MIC amounted to 32000 µg/mL. The “fractional inhibitory concentration index (FICI)” value in assay [7] is 0.25.

On to `O=c1cc(-c2ccccc2)oc2cc(O)c(O)c(O)c12` [BAICALEIN], for which the MIC in assay [8] stood at 128 µg/mL (≈ 474 µM); in assay [9], 64 µg/mL (≈ 237 µM); in [10], 128 µg/mL (≈ 474 µM); in assay [11] it was 64 µg/mL (≈ 237 µM); in [12], 128 µg/mL (≈ 474 µM); in [13], 128 µg/mL (≈ 474 µM).

Take `COc1cc(-c2oc3cc(OC)c(OC)c(O)c3c(=O)c2OC)ccc1O` [CHRYSOSPLENOL B]: the “fractional inhibitory concentration index (FICI)” value in assay [14] came to 0.375.

As for `Oc1ccc2c(c1)O[C@H](c1ccc(O)c(O)c1)[C@@H](O)C2` [FISETINIDOL], the MIC in [15], in [16] and in assay [17] was at least 1020 µg/mL each time.

On to `COc1cc2c(cc1O)CC[n+]1cc3c(OC)c(OC)ccc3cc1-2` [JATRORRHIZINE], for which the MIC in assay [18] came out at 16 µg/mL. Further, the “fractional inhibitory concentration index (FICI)” value in assay [19] came to 0.375.
